The values that follow come from US20160296499A1, “Spiroindoline Antiparasitic Derivatives” (ZOETIS SERVICES LLC, priority 2013, published 2016).

One assay concerns Haemonchus contortus L3. As to the kind of experiment: Haemonchus contortus, Larvae Stage 3 (HcL3) In Vitro Assay. Conditions: Haemonchus contortus.
In assay [1] the test system is Dirofilaria immitis microfilariae. As to the kind of experiment: Dirofilaria immitis, Microfilariae (DiMF) In Vitro Assay. Conditions: Dirofilaria immitis.
The target in assay [2] is T1, bovine vesicular acetylcholine transporter (VAChT) (Bos taurus, UniProt E1BK36).
T1 sequence (E1BK36 1-524): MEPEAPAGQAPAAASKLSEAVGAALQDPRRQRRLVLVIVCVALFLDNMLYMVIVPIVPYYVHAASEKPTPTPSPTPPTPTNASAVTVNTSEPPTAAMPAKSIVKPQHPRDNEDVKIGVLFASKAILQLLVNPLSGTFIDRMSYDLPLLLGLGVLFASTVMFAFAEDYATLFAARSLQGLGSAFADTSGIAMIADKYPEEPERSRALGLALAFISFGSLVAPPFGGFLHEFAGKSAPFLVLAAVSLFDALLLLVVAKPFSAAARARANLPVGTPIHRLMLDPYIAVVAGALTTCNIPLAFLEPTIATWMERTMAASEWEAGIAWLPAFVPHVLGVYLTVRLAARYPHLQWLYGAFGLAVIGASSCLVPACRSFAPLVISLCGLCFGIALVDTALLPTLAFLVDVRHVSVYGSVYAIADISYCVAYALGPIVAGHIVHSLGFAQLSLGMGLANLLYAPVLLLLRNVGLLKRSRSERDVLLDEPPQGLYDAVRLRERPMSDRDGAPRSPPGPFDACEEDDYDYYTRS
The experiment in a line: Radioligand Binding Assay. Conditions: Bovine binding Ki, CHO-K1 membranes with recombinant bovine VAChT, [3H]Compound X6 0.3 nM.

Setting [3] is: 96 h, read-out: HcL3 MEC, Minimal Effective Concentration whereby worm motility is inhibited by approximately 70%, 37° C., tested 0.001-100 μM.
[4] abbreviates: 72 h, read-out: Di MF, MEC, decrease in microfilariae motility by visual assessment, curve starting at 100 μM.
[5] abbreviates: 96 hours, 37° C., read-out: HcL3 MEC.

pKi: −log10 of the molar value. Like-named read-outs stand apart in the source and are kept apart here.

The term pKi denotes the Ki on a negative log10 scale, so that one unit is a factor of ten. `N#Cc1ccc(/C=C/CN2CCC3(CC2)CN(C(=O)NCc2ccnc(Cl)c2)c2cccc(C(F)(F)F)c23)cc1` [Example 99, (E)-N-((2-chloropyridin-4-yl)methyl)-1′-(3-(4-cyanophenyl)allyl)-4-(trifluoromethyl)spiro[indoline-3,4′-piperidine]-1-carboxamide]: the minimal effective concentration with Haemonchus contortus L3 (setting [3]) came out at 10 µM; in assay [1] (setting [4]) it was 5.7 µM. Also, the pKi in assay [2] was 6.51.

Regarding `O=C(NCc1ccnc(F)c1)N1CC2(CCN(C/C=C/c3ccc(F)cc3)CC2)c2ccc(OC(F)(F)F)cc21` [Example 100, (E)-1′-(3-(4-fluorophenyl)allyl)-N-((2-fluoropyridin-4-yl)methyl)-6-(trifluoromethoxy)spiro[indoline-3,4′-piperidine]-1-carboxamide], the minimal effective concentration in the assay on Haemonchus contortus L3 (setting [3]) is 3.3 µM; in assay [1] (setting [4]) it was 10 µM. For the same molecule, the negative logarithm of the Ki (pKi) in assay [2] was 6.92.

In the case of `O=C(NCc1ccnc(F)c1)N1CC2(CCN(C/C=C/c3ccc(F)cc3)CC2)c2ccc(C(F)(F)F)cc21` [Example 101, (E)-1′-(3-(4-fluorophenyl)allyl)-N-((2-fluoropyridin-4-yl)methyl)-6-(trifluoromethyl)spiro[indoline-3,4′-piperidine]-1-carboxamide], the minimal effective concentration amounted to 3.3 µM in the assay with Haemonchus contortus L3 (setting [5]) and 10 µM in assay [1] (72 hours, read-out: Di MF). Moreover, the negative-log Ki (pKi) in assay [2] is 7.19.

In the case of `O=C(NCc1ccnc(Cl)c1)N1CC2(CCN(C/C=C/c3ccc(Cl)c(Cl)c3)CC2)c2c(Br)cccc21` [Example 102, (E)-4-bromo-N-((2-chloropyridin-4-yl)methyl)-1′-(3-(3,4-dichlorophenyl)allyl)spiro[indoline-3,4′-piperidine]-1-carboxamide], the figures for the minimal effective concentration (in the assay with Haemonchus contortus L3 (setting [3]); in assay [1] (setting [4])) were 5.3 µM and 10 µM, respectively. Besides, the negative-log Ki (pKi) in assay [2] was 6.84.

As for `O=C(NCc1ccnc(F)c1)N1CC2(CCN(C/C=C/c3ccc(Cl)c(Cl)c3)CC2)c2c(Br)cccc21` [Example 103, 4-bromo-1′-[(E)-3-(3,4-dichlorophenyl)allyl]-N-[(2-fluoro-4-pyridyl)methyl]spiro[indoline-3,4′-piperidine]-1-carboxamide], the figures for the minimal effective concentration (with Haemonchus contortus L3 (setting [3]); in assay [1] (setting [4])) were 3.3 µM and 5.7 µM, respectively. Further, the pKi in assay [2] was 6.33.

For the molecule `O=C(NCc1ccnc(F)c1)N1CC2(CCN(C/C=C/c3ccc(Cl)c(Cl)c3)CC2)c2cc(Br)ccc21` [Example 104, 5-bromo-1′-[(E)-3-(3,4-dichlorophenyl)allyl]-N-[(2-fluoro-4-pyridyl)methyl]spiro[indoline-3,4′-piperidine]-1-carboxamide], the minimal effective concentration in the assay with Haemonchus contortus L3 (setting [5]) stood at 3.3 µM; in assay [1] (72 hours, read-out: Di MF), 10 µM. Besides, the negative logarithm of the Ki (pKi) in assay [2] is 7.36.

Take `O=C(NCc1ccnc(F)c1)N1CC2(CCN(C/C=C/c3ccc(Cl)cc3)CC2)c2cc(Br)ccc21` [Example 105, 5-bromo-1′-[(E)-3-(4-chlorophenyl)allyl]-N-[(2-fluoro-4-pyridyl)methyl]spiro[indoline-3,4′-piperidine]-1-carboxamide]: the minimal effective concentration (in the assay on Haemonchus contortus L3 (setting [3]); in assay [1] (setting [4])) was 3.3 µM in each case. For the same molecule, the pKi in assay [2] is 7.49.

In the case of `O=C(NCc1ccnc(F)c1)N1CC2(CCN(C/C=C/c3ccc(F)cc3)CC2)c2cc(Br)ccc21` [Example 106, 5-bromo-1′-[(E)-3-(4-fluorophenyl)allyl]-N-[(2-fluoro-4-pyridyl)methyl]spiro[indoline-3,4′-piperidine]-1-carboxamide], the minimal effective concentration worked out at 3.3 µM with Haemonchus contortus L3 (setting [3]) and 10 µM in assay [1] (setting [4]). In addition, the pKi in assay [2] was 7.14.

As for `O=C(NCc1ccnc(F)c1)N1CC2(CCN(C/C=C/c3ccc(C(F)(F)F)cc3)CC2)c2cc(Br)ccc21` [Example 107, 5-bromo-N-[(2-fluoro-4-pyridyl)methyl]-1′-[(E)-3-[4-(trifluoromethyl)phenyl]allyl]spiro[indoline-3,4′-piperidine]-1-carboxamide], the minimal effective concentration (in the assay with Haemonchus contortus L3 (setting [3]); in assay [1] (setting [4])) was 3.3 µM throughout. In assay [2], the pKi was 6.31.

As to `N#Cc1cccc(-c2ccc3c(c2)C2(CCN(C/C=C/c4ccc(Cl)c(Cl)c4)CC2)CN3C(=O)NCc2ccnc(F)c2)c1` [Example 108, 5-(3-cyanophenyl)-1′-[(E)-3-(3,4-dichlorophenyl)allyl]-N-[(2-fluoro-4-pyridyl)methyl]spiro[indoline-3,4′-piperidine]-1-carboxamide], the minimal effective concentration with Haemonchus contortus L3 (setting [3]) turned out to be 100 µM; in assay [1] (setting [4]), 3.3 µM. For the same molecule, the negative logarithm of the Ki (pKi) in assay [2] was 4.49.

As for `N#Cc1ccc(-c2ccc3c(c2)C2(CCN(C/C=C/c4ccc(Cl)cc4)CC2)CN3C(=O)NCc2ccnc(F)c2)cn1` [Example 109, 1′-[(E)-3-(4-chlorophenyl)allyl]-5-(6-cyano-3-pyridyl)-N-[(2-fluoro-4-pyridyl)methyl]spiro[indoline-3,4′-piperidine]-1-carboxamide], the minimal effective concentration in the assay on Haemonchus contortus L3 (setting [3]) was 3.3 µM; in assay [1] (setting [4]) it was 1.8 µM. Besides, the negative-log Ki (pKi) in assay [2] was 7.29.

As to `O=C(NCc1ccnc(F)c1)N1CC2(CCN(C/C=C/c3ccc(Cl)c(Cl)c3)CC2)c2cc(-c3cccnc3)ccc21` [Example 110, 1′-[(E)-3-(3,4-dichlorophenyl)allyl]-N-[(2-fluoro-4-pyridyl)methyl]-5-(3-pyridyl)spiro[indoline-3,4′-piperidine]-1-carboxamide], the minimal effective concentration amounted to 69.1 µM in the assay with Haemonchus contortus L3 (setting [3]) and 3.3 µM in assay [1] (setting [4]). In addition, in assay [2], the pKi is 5.11.

Turning to `O=C(NCc1ccnc(F)c1)N1CC2(CCN(C/C=C/c3ccc(Cl)c(Cl)c3)CC2)c2cc(-c3cn[nH]c3)ccc21` [Example 111, 1′-[(E)-3-(3,4-dichlorophenyl)allyl]-N-[(2-fluoro-4-pyridyl)methyl]-5-(1H-pyrazol-4-yl)spiro[indoline-3,4′-piperidine]-1-carboxamide], the results for the minimal effective concentration (with Haemonchus contortus L3 (setting [3]); in assay [1] (setting [4])) were 100 µM and 10 µM, respectively. Besides, the pKi in assay [2] was 5.47.

In the case of `O=C(NCc1ccnc(F)c1)N1CC2(CCN(C/C=C/c3ccc(Cl)c(Cl)c3)CC2)c2cc(-c3cncnc3)ccc21` [Example 112, 1′-[(E)-3-(3,4-dichlorophenyl)allyl]-N-[(2-fluoro-4-pyridyl)methyl]-5-pyrimidin-5-yl-spiro[indoline-3,4′-piperidine]-1-carboxamide], the values for the minimal effective concentration (in the assay with Haemonchus contortus L3 (setting [3]); in assay [1] (setting [4])) were 100 µM and 4.4 µM, respectively. The pKi in assay [2] is 5.48.

Take `N#Cc1ccc2c(c1)C1(CCN(C/C=C/c3ccc(Cl)c(Cl)c3)CC1)CN2C(=O)NCc1ccnc(F)c1` [Example 113, 5-cyano-1′-[(E)-3-(3,4-dichlorophenyl)allyl]-N-[(2-fluoro-4-pyridyl)methyl]spiro[indoline-3,4′-piperidine]-1-carboxamide]: the minimal effective concentration came to 1 µM in the assay with Haemonchus contortus L3 (setting [3]) and 2.4 µM in assay [1] (setting [4]). Also, in assay [2], the pKi is 7.18.

For `Cc1cccc2c1C1(CCN(C/C=C/c3ccc(Cl)c(Cl)c3)CC1)CN2C(=O)NCc1ccnc(F)c1` [Example 114, 1′-[(E)-3-(3,4-dichlorophenyl)allyl]-N-[(2-fluoro-4-pyridyl)methyl]-4-methyl-spiro[indoline-3,4′-piperidine]-1-carboxamide], the results for the minimal effective concentration (in the assay on Haemonchus contortus L3 (setting [3]); in assay [1] (setting [4])) were 5.7 µM and 10 µM, respectively. Also, the pKi in assay [2] is 6.62.

Regarding `N#Cc1cncc(-c2ccc3c(c2)C2(CCN(C/C=C/c4ccc(Cl)cc4)CC2)CN3C(=O)NCc2ccnc(F)c2)c1` [Example 115, 1′-[(E)-3-(4-chlorophenyl)allyl]-5-(5-cyano-3-pyridyl)-N-[(2-fluoro-4-pyridyl)methyl]spiro[indoline-3,4′-piperidine]-1-carboxamide], the minimal effective concentration in the assay with Haemonchus contortus L3 (setting [3]) came to 100 µM; in assay [1] (setting [4]) it was 7.6 µM. Moreover, the negative logarithm of the Ki (pKi) in assay [2] is 5.41.

Take `N#Cc1ccc(-c2ccc3c(c2)C2(CCN(C/C=C/c4ccc(Cl)c(Cl)c4)CC2)CN3C(=O)NCc2ccnc(F)c2)cn1` [Example 116, 5-(6-cyano-3-pyridyl)-1′-[(E)-3-(3,4-dichlorophenyl)allyl]-N-[(2-fluoro-4-pyridyl)methyl]spiro[indoline-3,4′-piperidine]-1-carboxamide]: the minimal effective concentration was found to be 5 µM in the assay with Haemonchus contortus L3 (setting [3]) and 4 µM in assay [1] (setting [4]). In addition, in assay [2], the negative-log Ki (pKi) was 7.23.

Regarding `COc1ccc2ccc(CN3CCC4(CC3)CN(C(=O)NCc3ccnc(F)c3)c3ccc(C#N)cc34)c(C)c2n1` [Example 117, 5-cyano-N-[(2-fluoro-4-pyridyl)methyl]-1′-[(2-methoxy-8-methyl-7-quinolyl)methyl]spiro[indoline-3,4′-piperidine]-1-carboxamide], the minimal effective concentration (in the assay with Haemonchus contortus L3 (setting [3]); in assay [1] (setting [4])) was 10 µM throughout. For the same molecule, the pKi in assay [2] was 6.72.
